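Method: 48-hour compound exposure of cells in 96-well plates, five concentrations, linear interpolation of endpoints. GI50 marks 50% less growth. TGI is the concentration that stops growth completely.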

The values that follow come from PubChem BioAssay (NCI).

Holding throughout (experiment): DTP human tumour cell line panel, 48 h
The subject of test [1] is COLO 205 colon.
Test [2] relates to DU-145 prostate.
In test [3] the test system is K-562 leukemia.
For test [4], the system named is OVCAR-4 ovarian.
Test [5] has as its system OVCAR-5 ovarian.
The subject of test [6] is SNB-75 CNS.
The subject of test [7] is UO-31 renal.
Test [8] relates to MDA-MB-435.

Regarding `COc1ccc(-c2[nH]c3ccc(OC)cc3c2C=C(C#N)C#N)cc1`, the GI50 (in general, the concentration giving 50% growth inhibition) in test [1] was 0.288 µM; in test [2], 0.752 µM; in test [3], 0.343 µM; in test [4], above 100 µM; in test [5], above 100 µM; in test [6] it was 0.551 µM. Further, the GI50 in test [7] was above 100 µM. Also, the TGI (commonly the concentration giving total growth inhibition) in test [1] was 1.02 µM; in test [2], above 100 µM; in test [3], above 100 µM; in test [4] it was above 100 µM; in test [5], above 100 µM; in test [6], 97.7 µM. The molecule also showed a TGI in test [7] above 100 µM.
For `CCCCCC/C=C\CCCCCCCCC(=O)c1cccc(OC)c1OC`, the TGI in test [1], in test [2], in test [3], in test [8], in test [5] and in test [6] was above 100 µM each time. This molecule also had a TGI in test [7] above 100 µM.
Take `COc1ccccc1CNCCN1C(=O)c2ccc3c4c(ccc(c24)C1=O)C(=O)N(CCNCc1ccccc1OC)C3=O`: the GI50 in test [1] was 0.169 µM; in test [2], 0.321 µM; in test [3] it was 0.234 µM; in test [4] it was 0.132 µM; in test [5], 0.68 µM; in test [6] it was 1.4 µM. The GI50 in test [7] was 0.841 µM. In addition, the TGI is 0.345 µM in test [1]; 1.11 µM in test [2]; 1.09 µM in test [3]; 0.261 µM in test [4]; 3.34 µM in test [5]; 2.83 µM in test [6]. In test [7], this molecule returned a TGI of 2.14 µM.
Take `Cc1cccc(Cn2cc(CO)c3cnccc32)c1`: the GI50 is above 100 µM in test [1]; above 100 µM in test [2]; 49.7 µM in test [8]; 78.3 µM in test [4]; above 100 µM in test [5]; 69.4 µM in test [6]. Further, the GI50 in test [7] is 46.4 µM. In addition, the TGI in test [1], in test [2], in test [8], in test [4], in test [5] and in test [6] was above 100 µM throughout. In test [7], this molecule gave a TGI above 100 µM.
`O=C(c1cccs1)c1c(C(F)(F)F)n([O-])c2cc(Cl)c(Cl)cc2[n+]1=O`: the GI50 in test [1] is 2 µM; in test [2], 0.872 µM; in test [3] it was 0.344 µM; in test [8] it was 1.5 µM; in test [4], 1.97 µM; in test [5], 1.77 µM. Besides, the GI50 in test [7] is 1.9 µM. Moreover, the TGI in test [1] is 4.13 µM; in test [2], 2.68 µM; in test [3], 17.4 µM; in test [8] it was 3.12 µM; in test [4], 4.25 µM; in test [5] it was 3.16 µM. In test [7], this molecule registered a TGI of 4.14 µM.
As for `COCCN(CCOC)c1nc(-c2ccccc2)nc2ccccc12`, the GI50 in test [1] was 28.2 µM; in test [2], 36.9 µM; in test [3], 36.1 µM; in test [8], 21.9 µM; in test [4] it was 44.8 µM; in test [5] it was 21.9 µM. Moreover, the GI50 in test [7] was 28.1 µM. Also, the TGI in test [1] is above 100 µM; in test [2], above 100 µM; in test [3], above 100 µM; in test [8], 55.8 µM; in test [4], above 100 µM; in test [5], 46.3 µM. The total growth inhibition concentration (TGI) in test [7] was above 100 µM.
Consider `Cc1ccc(NC(=O)c2cc(S(=O)(=O)Nc3nnc(-c4ccccc4)c(-c4ccccc4)n3)c(SCc3ccccc3)cc2Cl)cc1`, for which the GI50 in test [1] was 25 µM; in test [2], 20 µM; in test [3], 23.8 µM; in test [8] it was 15.9 µM; in test [4], 25.7 µM; in test [5] it was 19.4 µM. Further, the GI50 in test [7] is 25.3 µM. Besides, the TGI in test [1] is 55.6 µM; in test [2], 37.9 µM; in test [3], above 100 µM; in test [8] it was 35 µM; in test [4], 92.2 µM; in test [5], 33.8 µM. The molecule further showed a TGI in test [7] of 63.9 µM.
Regarding `COc1cc(-c2nccc3[nH]c(-c4ccc5cc[nH]c5c4)nc23)cc(OC)c1OC`, the GI50 in test [1] is below 0.01 µM; in test [2] it was below 0.01 µM; in test [3], below 0.01 µM; in test [4], 0.0307 µM; in test [5] it was 1.3 µM; in test [6], below 0.01 µM. The GI50 in test [7] was below 0.01 µM. The TGI is below 0.01 µM in test [1]; 11.4 µM in test [2]; 2.28 µM in test [3]; 17.1 µM in test [4]; 12.1 µM in test [5]; 6.6 µM in test [6]. The same molecule gave a TGI in test [7] of 2.93 µM.
On to `CC(=O)Oc1c(C(=O)[O-])cc(C(C)C)cc1C(C)C.CC(=O)Oc1c(C(=O)[O-])cc(C(C)C)cc1C(C)C.CC(=O)Oc1c(C(=O)[O-])cc(C(C)C)cc1C(C)C.CC(=O)Oc1c(C(=O)[O-])cc(C(C)C)cc1C(C)C.[Cu+2].[Cu+2]`, for which the GI50 is 21 µM in test [1]; 34.2 µM in test [2]; 3.18 µM in test [8]; 42.9 µM in test [4]; 57.2 µM in test [5]; 34.3 µM in test [6]. In addition, the GI50 in test [7] was 50.7 µM. For the same molecule, the concentration for total growth inhibition (TGI) is 42.5 µM in test [1]; above 100 µM in test [2]; 9.16 µM in test [8]; 97.1 µM in test [4]; above 100 µM in test [5]; 77.6 µM in test [6]. The molecule also showed a TGI in test [7] above 100 µM.
As to `COc1cc(OC)c(OC)cc1/C=C/c1nc2ccccc2s1`, the TGI is above 100 µM in test [1]; above 100 µM in test [2]; 15.1 µM in test [8]; above 100 µM in test [5]; above 100 µM in test [6]; above 100 µM in test [7].
